Reference: patent publication EP0513703A2, “Carbamate esters of eseroline having anticholinesterase activity, a process for their preparation and relative pharmaceutical compositions containing them as the active principle” (priority 1991, dated 1992)
Read-outs that look alike come from different tables or passages of the source.

Experiments:
[1] = test system: mouse; experiment: Spontaneous motility, Dews method modified according to Carminati (class D derivatives); format: in vivo; settings: mouse (Swiss)
Source text: (§1) The Dews method was used, modified according to Carminati (Arch. int. Pharmacodyn. et Thér 181, 68,1969).

[2] = test system: mice (Swiss strain); experiment: Acute toxicity, LD50 by oral route in mice (class D derivatives); format: in vivo; settings: mouse, suspension in 2 % carboxymethylcellulose, observation 7 days
Source text: The letal doses 50 (LD50) by oral route (suspension in 2 % carboxymethylcellulose) are reported hereinbelow: TABLE 6

[3] = test system: rabbit; experiment: Effect on the duration of the curarization by succinylcholine (class D derivatives); format: in vivo; settings: anesthetized rabbit, 0.5 mg intravenous
[4] = test system: SWISS male mice; experiment: Electroencephalographic activity (class D derivatives); format: in vivo; settings: 3mg/kg/os, in the course of the successive 30 minutes
[5] = Pharmacokinetics, plasma level by HPLC (MGF001); format: in vivo, Wistar male rats; settings: rat, 2mg/kg/os
Description: (§2) The presence of said substance in plasma was detected by HPLC.
(§3) With the optimized method the detection limit was of 0.15 µg per ml of plasma.

[6] = test system: acetylcholinesterase (AchE); format: in vivo, Wistar male rats; settings: rat; for inhibitory acetylcholinesterase activity (in words): oral, 1-2 mg/kg
[7] = Pharmacokinetics, plasma level by HPLC (MGS101); format: in vivo, Wistar male rats; settings: rat, 6 mg/kg/os
Description: as §2, §3

[8] = test system: SWISS male mice; experiment: Electroencephalographic activity (class A derivatives); format: in vivo; settings: 6 mg/kg/os, in the course of the successive 30 minutes
[9] = test system: acetylcholinesterase (AchE); format: in vivo, Wistar male rats; settings: rat; for inhibitory cerebral and serumal acetylcholinesterase activity (in words): oral, 1.5 to 4.5 mg/kg
[10] = test system: mouse; experiment: Spontaneous motility, Dews method modified according to Carminati (class A derivatives); format: in vivo; settings: mouse (Swiss), oral, starting from minimum doses of 4-6 mg/kg
Source text: as §1

[11] = test system: mice (Swiss strain); experiment: Acute toxicity, LD50 by oral route in mice (class A derivatives); format: in vivo; settings: mouse, suspension in 2 % carboxymethylcellulose, observation 7 days
Source text: The letal doses 50 (LD50) by oral route (suspension in 2 % carboxymethylcellulose) are reported herinbelow: TABLE 1

[12] = test system: rabbit; experiment: Effect on the duration of the curarization by succinylcholine (class A derivatives); format: in vivo; settings: anesthetized rabbit, 0.8 mg/kg intravenous
Source text: . […] By using the same method (male rabbits of the tawny strain of Bourgogne; […]

[13] = test system: mice (Swiss strain); experiment: Acute toxicity, LD50 by oral route in mice (class E derivatives); format: in vivo; settings: mouse, suspension in 2 % carboxymethylcellulose, observation 7 days
Source text: The letal doses 50 (LD50) by oral route (suspension in 2 % carboxymethylcellulose) are reported herinbelow: TABLE 9

[14] = test system: SWISS male mice; experiment: Electroencephalographic activity (class E derivatives); format: in vivo; settings: 0.4 mg/kg/os, in the course of the successive 30 minutes
[15] = Pharmacokinetics, plasma level by HPLC (MS001); format: in vivo, Wistar male rats; settings: rat, 0.5 mg/kg/os
Description: The presence of MS001 in plasma was detected by HPLC.
With the optimized method the detection limit was of 0.20 µg per ml of plasma.

[16] = test system: acetylcholinesterase; format: in vivo, Wistar male rats; settings: rat
[17] = test system: mouse; experiment: Spontaneous motility, Dews method modified according to Carminati (class E derivatives); format: in vivo; settings: mouse (Strain Swiss)
Source text: as §1

[18] = test system: motor activity; experiment: Antagonist effect on the stimulating effect of scopolamine (class C derivatives); format: in vivo; settings: scopolamine 1 mg/kg
Description: This is countered by the oral administration of 2.5 mg of ES001, ES002, ES003.

[19] = test system: motor activity; experiment: Antagonistic effect on the stimulating effect of scopolamine (class F derivatives); format: in vivo; settings: scopolamine 1 mg/kg
Description: At the dose of 1 mg/kg the scopolamine produce a clear stimulating effect (100 % of motor activity increase). This is countered by the oral administration of 2.5 mg of the three products MGR001, MGR002 and MGR003.

[20] = test system: motor activity; experiment: Antagonistic effect on the stimulating effect of scopolamine (class B derivatives); format: in vivo; settings: scopolamine 1 mg/kg
Description: At the dose of 1 mg/kg, scopolamine produces an evident stimulating effect (100% increase in motor activity).
This effect is countered by the oral administration of 2.5 mg of the above mentioned compounds.

[21] = acetylcholinesterase inhibition 20 minutes after oral administration, limits in brackets

CNCCCCCCCNC(=O)Oc1ccc2c(c1)[C@]1(C)CCN(C)[C@@H]1N2C [MGF001, (3a S-cis) - 1,2,3,3a,8,8a hexahydro - 1,3a,8 - trimethyl pyrrol [2,3-b]-indol-5-ol-N-methyl-aminoheptyl carbamate ester]
oral dose causing a significant decrease of the spontaneous motility [1]: 2.5 to 5 mg/kg | LD50 per os [2]: 461.44 ± 51.33 mg/kg | curare effect of succinylcholine compared with physostigmine [3]: prolonged in the same way as physostigmine the curare effect of succinylcholine | modifications of the electroencephalogram [4]: increase of the amplitude and a decrease of the frequency of the electroencephalogram | concentration in plasma after 20 minutes [5]: 11480 ± 2230 ng/mL | concentration in plasma after 120 minutes [5]: 28410 ± 8400 ng/mL | concentration in plasma after 12 hours [5]: 10640 ± 5460 ng/mL | maximum peak in plasma [5]: 47.60 ± 9.12 µg/mL | time of the maximum peak in plasma [5]: 90 ' | INHIBITION % OF ACETYLCHOLINESTERASE (AchE) after 60 minutes brain ([6]; 2 mg/kg/OS): 46.38 ± 4.12% | INHIBITION % OF ACETYLCHOLINESTERASE (AchE) after 60 minutes serum ([6]; 2 mg/kg/OS): 42.6 ± 5.28% | INHIBITION % OF ACETYLCHOLINESTERASE (AchE) after 120 minutes brain ([6]; 2 mg/kg/OS): 25.45 ± 2.18% | INHIBITION % OF ACETYLCHOLINESTERASE (AchE) after 120 minutes serum ([6]; 2 mg/kg/OS): 19.83 ± 4.27% | ED50 (mg/kg/os) brain [6, 21]: 1.83 (1.14 - 2.94) mg/kg/os | ED50 (mg/kg/os) serum [6, 21]: 1.90 (1.13 - 3.20) mg/kg/os | inhibitory acetylcholinesterase activity (in words) [6]: clear inhibitory dose-dependent and reversible

CNCCCCCNC(=O)Oc1ccc2c(c1)[C@]1(C)CCN(C)[C@@H]1N2C [MGF002, (3a S-cis) - 1,2,3,3a,8,8a hexahydro - 1,3a,8 - trimethyl pyrrol [2,3,b]-indol-5-ol-N-methyl-aminopentyl carbamate ester]
oral dose causing a significant decrease of the spontaneous motility [1]: 2.5 to 5 mg/kg | LD50 per os [2]: 436.72 ± 23.45 mg/kg | curare effect of succinylcholine compared with physostigmine [3]: prolonged in the same way as physostigmine the curare effect of succinylcholine | inhibitory acetylcholinesterase activity (in words) [6]: clear inhibitory dose-dependent and reversible

CC[C@H](C)[C@H](NC(=O)Oc1ccc2c(c1)[C@]1(C)CCN(C)[C@@H]1N2C)C(=O)O [MGS101]
concentration in plasma after 20 minutes [7]: 15910 ± 4210 ng/mL | concentration in plasma after 24 hours [7]: 4310 ± 1980 ng/mL | concentration in plasma at the twelfth hour [7]: 14220 ± 3120 ng/mL | maximum peak in plasma [7]: 33.81 ± 6.15 µg/mL | time of the maximum peak in plasma [7]: 90 ' | modifications of the electroencephalogram [8]: increase of the amplitude and a decrease of the frequency of the electroencephalogram | INHIBITION % OF ACETYLCHOLINESTERASE (AchE) after 60 minutes brain ([9]; 3.5 mg/kg/OS): 38.71 ± 6.12% | INHIBITION % OF ACETYLCHOLINESTERASE (AchE) after 60 minutes serum ([9]; 3.5 mg/kg/OS): 31.6 ± 4.25% | INHIBITION % OF ACETYLCHOLINESTERASE (AchE) after 120 minutes serum ([9]; 3.5 mg/kg/OS): 20.12 ± 2.40% | ED50 (mg/kg/os) brain [9, 21]: 2.89 (1.83 - 4.59) mg/kg/os | ED50 (mg/kg/os) serum [9, 21]: 2.89 (1.82 - 4.49) mg/kg/os | inhibitory cerebral and serumal acetylcholinesterase activity (in words) [9]: clear inhibitory dose-dependent and reversible | decrease of the spontaneous motility (on average) [10]: ~-30% | LD50 per os [11]: 332.8 ± 6.20 mg/kg | effect on the curarization by succinylcholine compared with physostigmine [12]: induced the same anticholinesterase effect of physostigmine

CCCCCCCOC(=O)[C@@H](NC(=O)Oc1ccc2c(c1)[C@]1(C)CCN(C)[C@@H]1N2C)[C@@H](C)CC [MGS102, (3aS-cis) 1,2,3,3a,8,8a hexahydro-1,3a, 8-trimethyl-pyrrol (2,3-b) indol-5-ol-L-(3-methyl-2 carboxy-n-heptyl)-butyl-carbamate]
inhibitory cerebral and serumal acetylcholinesterase activity (in words) [9]: clear inhibitory dose-dependent and reversible | decrease of the spontaneous motility (on average) [10]: ~-30% | LD50 per os [11]: 358.3 ± 18.83 mg/kg | effect on the curarization by succinylcholine compared with physostigmine [12]: induced the same anticholinesterase effect of physostigmine

CN1CC[C@@]2(C)c3cc(OC(=O)NCCCCCCCCNC(=O)Oc4ccc5c(c4)[C@]4(C)CCN(C)[C@@H]4N5C)ccc3N(C)[C@@H]12 [MS001, (3a S-cis) - 1,2,3,3a,8,8a hexahydro - 1,3a,8 - trimethyl pyrrol [2,3-b]-indol-5-ol-1,8-octandicarbamate ester]
LD50 per os [13]: 51.40 ± 5.48 mg/kg | modifications of the electroencephalogram [14]: increase of the amplitude and a decrease of the frequency of the electroencephalogram | concentration in plasma after 15 minutes [15]: 10640 ± 6260 ng/mL | concentration in plasma after 120 minutes [15]: 32120 ± 6410 ng/mL | concentration in plasma after twelve hours [15]: 11310 ± 3180 ng/mL | maximum peak in plasma [15]: 41.24 ± 8.36 µg/mL | time of the maximum peak in plasma [15]: 90 ' | INHIBITION % OF ACETYLCHOLINESTERASE (AchE) after 60 minutes brain ([16]; 0.2 mg/kg/OS): 43.41 ± 3.25% | INHIBITION % OF ACETYLCHOLINESTERASE (AchE) after 60 minutes serum ([16]; 0.2 mg/kg/OS): 36.22 ± 6.20% | INHIBITION % OF ACETYLCHOLINESTERASE (AchE) after 120 minutes brain ([16]; 0.2 mg/kg/OS): 19.6 ± 3.41% | INHIBITION % OF ACETYLCHOLINESTERASE (AchE) after 120 minutes serum ([16]; 0.2 mg/kg/OS): 23.12 ± 5.28% | ED50 (mg/kg/os) brain [16, 21]: 0.17 (0.12 - 0.23) mg/kg/os | ED50 (mg/kg/os) serum [16, 21]: 0.18 (0.12 - 0.26) mg/kg/os | oral dose causing a significant decrease of the spontaneous motility [17]: 0.25 mg/kg | decrease of the spontaneous motility (on average) ([17]; oral, 0.25 mg/kg): ~-25%

CN1[C@@H]2C[C@@H](OC(=O)[C@H](CO)c3ccccc3)C[C@H]1[C@@H]1O[C@@H]12 [scopolamine, reference compound]
increase in motor activity [18]: 100% | motor activity increase [19]: 100% | increase in motor activity [20]: 100%
